Measurements taken from US20100120798A1, “SUBSTITUTED PIPERIDINES CONTAINING A HETEROARYLAMIDE OR HETEROARYLPHENYL MOIETY” (ASTEX THERAPEUTICS LIMITED, priority 2006, published 2010).
Where a name gives a salt, the structure may show the parent alone.

Experiment: In vitro MDA-MB-468 human breast adenocarcinoma GSK-3 phosphorylation assay
Type: cell-based
Conditions: mean IC50, MDA-MB-468 cells, 2 hours with compound, phospho-GSK-3β
Description: This assay determines the ability of test compounds to inhibit phosphorylation of Serine-9 residue in Glycogen Synthase Kinase-3beta (GSK-3β) as a surrogate marker of cellular PKB (Akt) activity, as assessed using Acumen Explorer Fluorescent Plate-Reader technology. A MDA-MB-468 human breast adenocarcinoma cell line (LGC Promochem, Teddington, Middlesex, UK, Catalogue No. HTB-132) was routinely maintained in Dulbecco's modified Eagle's growth medium (DMEM; Invitrogen Limited, Paisley, UK Catalogue No. 11966-025) containing 10% heat-inactivated foetal calf serum (FCS; Sigma, Poole, Dorset, UK, Catalogue No. F0392) and 1% L-glutamine (Gibco, Catalogue No. 25030-024) at 37° C. with 5% CO2 up to a confluency of 70-90%.
For the phosphorylation assay, the cells were detached from the culture flask using Trypsin-EDTA (Invitrogen Limited, Catalogue No. 25300-062) and seeded into the wells of a black transparent-bottom Corning Costar Polystyrene 96 well plate (Fisher Scientific UK, Loughborough, Leicestershire, UK; Catalogue No. 3904 and DPS-130-020K) at a density of 5000 cells per well in 100 μl of complete growth media. The cells were incubated overnight at 37° C. with 5% CO2 to allow them to adhere.
On day 2, the cells were treated with test compounds and incubated for 2 hours at 37° C. with 5% CO2. Test compounds were prepared as 10 mM stock solutions in DMSO and dosed directly to required concentration into test wells using non-contact (acoustic dispensing of multiple 2.5 nl droplets directly into assay wells) ECHO dosing technology (Labcyte Inc. Sunnyvale, Calif., USA). Each plate contained control wells without test compound.
20 μl of fixing buffer (Phosphate Buffered Saline (PBS) containing 10% formaldehyde; Sigma; Catalogue No. F1635) was then added to each well to give a final well concentration 1.6%. Plates were then incubated for 30 minutes at room temperature prior to the fixative being removed. Each well was washed once with 250 μl of PBS and then 50 μl PBS added to each well. PBS was then aspirated and cells permeabilised and blocked by incubating each well with 50 μl of permeabilisation/blocking buffer (PBS containing 0.5% Tween 20 (Sigma; Catalogue No. P5927) and 5% Marvel Milk Powder (Andrews Pharmacy Ltd, Macclesfield, Cheshire, UK; Catalogue No. APC100199)) for 1 hour at room temperature prior to staining.
Following removal of Perm/Block buffer, 50 μl of primary anti-phospho-GSK-3β antibody (Cell Signalling Technology (New England Biolabs (Uk) Ltd.), Hitchin, Hertfordshire, UK; Catalogue No. 9336 diluted 1:400 in Blocking buffer (PBS containing 5% Marvel and 0.05% Tween/Polysorbate 20) was added to each well and incubated overnight at 4° C.
Each well was washed three times in 250 μl of wash buffer (PBS containing 0.05% polysorbate 20), and cells incubated for 1 hour at room temperature with 50 μl of secondary fluorescently-labelled anti-rabbit Alexa Fluor 488 antibody (Molecular Probes, Invitrogen Limited, Catalogue No. A11008) diluted 1:750 in blocking buffer. Plates were washed three times in 250 μl of wash buffer and stored containing 50 μl of PBS at 4° C. until required.
Plates were analysed using an Acumen Explorer Plate-reader to quantify level of fluorescent signal that represents quantity of phosphorylated-GSK-3β.
IC50 calculation—IC50 is the concentration of compound required to give 50% effect over the range of activity affected by the compound, between maximum (no compound) and minimum (excess level of compound) response control data. IC50 values were determined by fitting background corrected, dose response assay data to a 4 parameter logistic curve fit equation model with the minimum response set to zero. This was done using an in-house developed algorithm within the Origin graphing software package (OriginLab Corporation, Northampton, Mass., USA). […]

| IC50 [nM] | SMILES |
| --- | --- |
| < 8 | Cc1sccc1-c1cccc(C2(CN)CCN(c3ncnc4[nH]cnc34)CC2)c1 [Example 7, C-[4-[3-(2-Methyl-thiophen-3-yl)-phenyl]-1-(9H-purin-6-yl)-piperidin-4-yl]-methylamine] |
| < 13 | NCC1(c2cccc(-c3cncc(F)c3)c2)CCN(c2ncnc3[nH]cnc23)CC1 [Example 8, C-[4-[3-(5-Fluoro-pyridin-3-yl)-phenyl]-1-(9H-purin-6-yl)-piperidin-4-yl]-methylamine] |
| 400 | CNCC1(c2cccc(-c3cnn(C)c3)c2)CCN(c2ncnc3[nH]cnc23)CC1 [Example 9, Methyl-[4-[3-(1-methyl-1H-pyrazol-4-yl)-phenyl]-1-(9H-purin-6-yl)-piperidin-4-ylmethyl]-amine] |
| 5100 | Cn1cc(-c2cccc(C3(CO)CCN(c4ncnc5[nH]cnc45)CC3)c2)cn1 [Example 10, [4-[3-(1-Methyl-1H-pyrazol-4-yl)-phenyl]-1-(9H-purin-6-yl)-piperidin-4-yl]-methanol] |
| 1400 | NC1(C(=O)NCc2ccc(C(F)(F)F)nc2)CCN(c2ncnc3[nH]ccc23)CC1 [Example 14, 4-amino-1-(7H-pyrrolo[2,3-d]pyrimidin-4-yl)-piperidine-4-carboxylic acid (6-trifluoromethyl-pyridin-3-ylmethyl)-amide hydrochloride] |
| < 5.9 | NCC1(C(=O)NCc2ccc(Br)s2)CCN(c2ncnc3[nH]ccc23)CC1 [Example 21, 4-(aminomethyl)-N-((5-bromothiophen-2-yl)methyl)-1-(7H-pyrrolo[2,3-d]pyrimidin-4-yl)piperidine-4-carboxamide] |
| 16 | NCC1(C(=O)NCc2ccc(Cl)s2)CCN(c2ncnc3[nH]ccc23)CC1 [Example 22, 4-(Aminomethyl)-N-((5-chlorothiophen-2-yl)methyl)-1-(7H-pyrrolo[2,3-]pyrimidin-4-yl)piperidine-4-carboxamide] |
| 43 | Cc1ccc(CNC(=O)C2(CN)CCN(c3ncnc4[nH]ccc34)CC2)s1 [Example 23, 4-(Aminomethyl)-N-((5-methylthiophen-2-yl)methyl)-1-(7H-pyrrolo[2,3-d]pyrimidin-4-yl)piperidine-4-carboxamide] |
| 8.6 | NCC1(C(=O)NCc2cc(Br)no2)CCN(c2ncnc3[nH]ccc23)CC1 [Example 24, 4-(Aminomethyl)-N-((3-bromoisoxazol-5-yl)methyl)-1-(7H-pyrrolo[2,3-d]pyrimidin-4-yl)piperidine-4-carboxamide] |
| 10 | NCC1(C(=O)NCc2cc3ccccc3[nH]2)CCN(c2ncnc3[nH]nc(Br)c23)CC1 [Example 25, N-((1H-Indol-2-yl)methyl)-4-(aminomethyl)-1-(3-bromo-1H-pyrazolo[3,4-d]pyrimidin-4-yl)piperidine-4-carboxamide] |
| 23 | NCC1(C(=O)NCc2cc3ccccc3[nH]2)CCN(c2ncnc3[nH]ccc23)CC1 [Example 26, N-((1H-Indol-2-yl)methyl)-4-(aminomethyl)-1-(7H-pyrrolo[2,3-d]pyrimidin-4-yl)piperidine-4-carboxamide] |
| 110 | NCC1(C(=O)NCc2ccc(C(F)(F)F)nc2)CCN(c2ncnc3[nH]ccc23)CC1 [Example 27, 4-(Aminomethyl)-1-(7H-pyrrolo[2,3-d]pyrimidin-4-yl)-N-((6-(trifluoromethyl)pyridin-3-yl)methyl)piperidine-4-carboxamide] |
| 7.2 | Cn1cc(-c2cccc(C3(CN)CCN(c4ncnc5[nH]cc(Br)c45)CC3)c2)cn1 [Example 28, (1-(5-bromo-7H-pyrrolo[2,3-d]pyrimidin-4-yl)-4-(3-(1-methyl-1H-pyrazol-4-yl)phenyl)piperidin-4-yl)methanamine] |
| 11 | Cn1cc(-c2cccc(C3(CN)CCN(c4ncnc5[nH]cc(Cl)c45)CC3)c2)cn1 [Example 29, (1-(5-Chloro-7H-pyrrolo[2,3-d]pyrimidin-4-yl)-4-(3-(1-methyl-1H-pyrazol-4-yl)phenyl)piperidin-4-yl)methanamine] |
